Assay results: patent publication US20250243160A1, “INDOLE DERIVATIVES FOR TARGETING AUTOPHAGY” (Automera PTE. LTD, priority 2024, published 2025)

Tested on: p62 puncta
Test: p62 puncta immunocytochemistry imaging in HeLa cells
Assay type: cell-based
Details: 24 hours treatment, relative to vehicle control (DMSO)
Protocol: HeLa cells were seeded in coated 96-well plates (10,000 cells) and allowed to adhere overnight. After 24 hours of treatment with either vehicle (DMSO) or test compounds, the media was discarded, and cells were rinsed with ice-cold 1×PBS before fixation by 4% formaldehyde or paraformaldehyde for 20 min. Cells were then washed with 1×PBS and permeabilized with 0.1% Triton X-100 in PBS for 20 min and blocked with Blocking Buffer in PBS for 1 hour. The cells were incubated thereafter for 1 hour with anti-p62 primary antibody in Blocking Buffer, followed by incubation with secondary antibody for 1 hour. DAPI dye was used to visualize nuclei of fixed cells. The blocking buffer used were 5% Fetal Bovine Serum (FBS, ThermoFIsher Scientific, 10270106) and Li-cor Intercept (PBS) Blocking Buffer (Li-cor, 927-70001). The primary antibody used was mouse anti-p62 primary antibody (Novus Biologicals, H00008878-M01). The secondary antibodies used were goat anti-mouse Alexa Fluor Plus 488 secondary antibody (Invitrogen, GOXMS) and goat anti-mouse Alexa Fluor 488 secondary antibody (Invitrogen, A-11029). The DAPI dyes used were DAPI dye (Invitrogen, 62248) and DAPI dye (Invitrogen, D1306).
For the EVOS M7000 System, cells were imaged on the EVOS M7000 microscope using a 20× air objective (Nikon, N.A 0.45). DAPI and p62 channels were illuminated with LED light cubes using integrated hard-coated filter sets for DAPI (357/447 nm) and GFP (470/525 nm) respectively. Images were analysed for p62 puncta count on the Celeste 6.0 software.
For the Operetta CLS System, cells were imaged on the Operetta CLS using a 63× water objective on the DAPI and Alexa 488 channels. Images were analysed for p62 puncta count on the Harmony 5.1 software.
HeLa cells were treated with compounds for 24 hours to evaluate the effect of these compounds on p62 puncta activity. The resulting changes in levels of p62 puncta were assessed by imaging, either on the EVOS M7000 or Operetta CLS systems as described in experimental procedures. The fold change of p62 puncta levels induced by compound treatment relative to vehicle control (DMSO) was determined and summarized in Table 10.

Row | SMILES | p62 puncta (fold change of p62 puncta levels)
1 | CC(C)(C)OC(=O)CCCCOCCNCc1cc(F)cc2c1ccn2Cc1ccc(Cl)cc1 [Compound 147] | + (<2-fold change in p62 puncta levels relative to DMSO control)
2 | C#CCCCCCOCCNCc1cc(F)cc2c1ccn2Cc1ccc(Cl)cc1 [Compound 148] | + (<2-fold change in p62 puncta levels relative to DMSO control)
3 | CC(C)(C)OC(=O)CCCCCCCCOCCNCc1cc(F)cc2c1ccn2Cc1ccc(Cl)cc1 [Compound 149] | + (<2-fold change in p62 puncta levels relative to DMSO control)
4 | CC(C)(C)OC(=O)CCCCCOCCNCc1cc(F)cc2c1ccn2Cc1ccc(Cl)cc1 [Compound 150] | + (<2-fold change in p62 puncta levels relative to DMSO control)
5 | C#CCCCCCCOCCNCc1cc(F)cc2c1ccn2Cc1ccc(Cl)cc1 [Compound 151] | + (<2-fold change in p62 puncta levels relative to DMSO control)
6 | CCOC(=O)C1CCN(C(=O)COCCNCc2cc(F)cc3c2ccn3Cc2ccc(Cl)cc2)CC1 [Compound 152] | + (<2-fold change in p62 puncta levels relative to DMSO control)
7 | CC(C)(C)OC(=O)CCCOCCNCc1cc(F)cc2c1ccn2Cc1ccc(Cl)cc1 [Compound 154] | ++ (>2-fold change in p62 puncta levels relative to DMSO control)
8 | COC(=O)C1(COCCNCc2cc(F)cc3c2ccn3Cc2ccc(Cl)cc2)COC1 [Compound 155] | + (<2-fold change in p62 puncta levels relative to DMSO control)
9 | CC(C)(C)OC(=O)N1CCN(CCOCCNCc2cc(F)cc3c2ccn3Cc2ccc(Cl)cc2)CC1 [Compound 156] | ++ (>2-fold change in p62 puncta levels relative to DMSO control)
10 | CC(C)(C)OC(=O)NCCCCCOCCNCc1cc(F)cc2c1ccn2Cc1ccc(Cl)cc1 [Compound 157] | ++ (>2-fold change in p62 puncta levels relative to DMSO control)
11 | CC(C)(C)OC(=O)NCCCCCCCCOCCNCc1cc(F)cc2c1ccn2Cc1ccc(Cl)cc1 [Compound 158] | ++ (>2-fold change in p62 puncta levels relative to DMSO control)
12 | CC(C)(C)OC(=O)NCCCCCCOCCNCc1cc(F)cc2c1ccn2Cc1ccc(Cl)cc1 [Compound 159] | ++ (>2-fold change in p62 puncta levels relative to DMSO control)
13 | CC(C)(C)OC(=O)Nc1ccc(COCCNCc2cc(F)cc3c2ccn3Cc2ccc(Cl)cc2)cc1 [Compound 160] | ++ (>2-fold change in p62 puncta levels relative to DMSO control)
14 | CC(C)(C)OC(=O)N1CCC(CCOCCNCc2cc(F)cc3c2ccn3Cc2ccc(Cl)cc2)CC1 [Compound 161] | ++ (>2-fold change in p62 puncta levels relative to DMSO control)
15 | CC(C)(C)OC(=O)Nc1cccc(COCCNCc2cc(F)cc3c2ccn3Cc2ccc(Cl)cc2)c1 [Compound 162] | ++ (>2-fold change in p62 puncta levels relative to DMSO control)
16 | CC(C)(C)OC(=O)NCCCOCCNCc1cc(F)cc2c1ccn2Cc1ccc(Cl)cc1 [Compound 163] | ++ (>2-fold change in p62 puncta levels relative to DMSO control)
17 | CC(C)(C)OC(=O)N1CC(COCCNCc2cc(F)cc3c2ccn3Cc2ccc(Cl)cc2)C1 [Compound 164] | ++ (>2-fold change in p62 puncta levels relative to DMSO control)
18 | CC(C)(C)OC(=O)NC1(COCCNCc2cc(F)cc3c2ccn3Cc2ccc(Cl)cc2)CC1 [Compound 165] | ++ (>2-fold change in p62 puncta levels relative to DMSO control)
19 | CC(C)(C)OC(=O)N1CCC(OCCNCc2cc(F)cc3c2ccn3Cc2ccc(Cl)cc2)C1 (centres unmarked) [Compound 166] | ++ (>2-fold change in p62 puncta levels relative to DMSO control)
20 | CC(C)(C)OC(=O)N1CC(OCCNCc2cc(F)cc3c2ccn3Cc2ccc(Cl)cc2)C1 [Compound 167] | ++ (>2-fold change in p62 puncta levels relative to DMSO control)
21 | COC(=O)c1ccc(OCCOCCNCc2cc(F)cc3c2ccn3Cc2ccc(Cl)cc2)cc1 [Compound 168] | ++ (>2-fold change in p62 puncta levels relative to DMSO control)
22 | COC(=O)CCOCCOCCOCCNCc1cc(F)cc2c1ccn2Cc1ccc(Cl)cc1 [Compound 169] | + (<2-fold change in p62 puncta levels relative to DMSO control)
23 | C#CCCCCCCCCOCCNCc1cc(F)cc2c1ccn2Cc1ccc(Cl)cc1 [Compound 170] | ++ (>2-fold change in p62 puncta levels relative to DMSO control)
24 | COC(=O)c1ccc(N2CCC(COCCNCc3cc(F)cc4c3ccn4Cc3ccc(Cl)cc3)CC2)cc1 [Compound 171] | ++ (>2-fold change in p62 puncta levels relative to DMSO control)
25 | CC(C)(C)OC(=O)NCC1CC(COCCNCc2cc(F)cc3c2ccn3Cc2ccc(Cl)cc2)C1 (centres unmarked) [Compound 172] | ++ (>2-fold change in p62 puncta levels relative to DMSO control)
26 | C#Cc1ccc(COCCNCc2cc(F)cc3c2ccn3Cc2ccc(Cl)cc2)cc1 [Compound 173] | ++ (>2-fold change in p62 puncta levels relative to DMSO control)
27 | CC(C)(C)OC(=O)N1CCC(COCCOCCNCc2cc(F)cc3c2ccn3Cc2ccc(Cl)cc2)CC1 [Compound 174] | ++ (>2-fold change in p62 puncta levels relative to DMSO control)
28 | CC(C)(C)OC(=O)NC[C@H]1CC[C@H](COCCNCc2cc(F)cc3c2ccn3Cc2ccc(Cl)cc2)CC1 [Compound 175] | ++ (>2-fold change in p62 puncta levels relative to DMSO control)
29 | CC(C)(C)OC(=O)N[C@H]1CC[C@@H](COCCNCc2cc(F)cc3c2ccn3Cc2ccc(Cl)cc2)CC1 [Compound 176] | ++ (>2-fold change in p62 puncta levels relative to DMSO control)
30 | CNCCOCc1cc(F)cc2c1ccn2Cc1ccc(Cl)cc1 [Compound 178] | ++ (>2-fold change in p62 puncta levels relative to DMSO control)

Target: Recombinant p62 protein (Homo sapiens, UniProt Q13501)
Test: Surface plasmon resonance (SPR) compound binding to p62
Details: 15° C
Protocol: Recombinant p62 protein was buffer exchanged into Biacore SPR running buffer (Cytiva 100671) using the Slide-A-Lyzer Mini Dialysis system 7K MWCO (Thermo Fisher Scientific, Cat no. 69560). The final protein concentration was determined using the Nanodrop One spectrophotometer (Thermo Fisher Scientific, cat no. ND-ONE-W), with calibration for the dialysis buffer.
The prepared protein was diluted in sodium acetate buffer (NaAc, pH 5.5, Cytiva) to concentrations ranging from approximately 0.25-40 μg/mL. Post-immobilization, the protein required approximately 16 hours of equilibration in running buffer supplemented with 1% DMSO at 15° C. to ensure adequate surface equilibration and protein reorganization.
All SPR experiments were conducted at a constant temperature of 15° C. The SPR chip surface was activated using EDC/NHS for a contact time of 6-10 min at a flow rate of 10 μL/min. This was followed by protein immobilization for 2100 seconds and ethanolamine capping for 420 seconds, both at the same flow rate. Immediately after immobilization, the NH2-REEE peptide was analyzed in Single Cycle Kinetics mode (SCK) to verify surface activity, ensuring it binds the sample with the published affinity (˜20 μM by SPR).
For general compound binding studies, experiments were performed at 15° C. using a running buffer composed of 10 mM HEPES, 150 mM NaCl, 1 mM DTT, 0.05% Tween 20, and 1% DMSO at pH 7.4. The test compound was initially prepared at a 20 mM concentration in DMSO and subsequently titrated in 2-fold dilutions. For each assay, 2 μL of the compound was mixed with 198 μL of the running buffer, and the mixture was thoroughly pipetted approximately 15 times for homogenization.
A series of blank injections (0 μM concentration) were included for double referencing, with at least 8 or 16 per plate depending on the format. Typical injection parameters were 120 seconds for association and 180 seconds for dissociation at a flow rate of […]. A four-point solvent correction was prepared with DMSO concentrations ranging from 2% to 0.5% in the buffer. Post each compound injection, the system's needles were washed with 50% DMSO.
Analysis of the SPR data was conducted using the Cytiva Evaluation software. The binding levels at the late time-point of each interaction were corrected for reference, then normalized to percentage bound values to account for variations in immobilization levels, protein molecular weight, and compound molecular weight.
Compound binding studies were carried out according to experimental procedures above and SPR % occupancy was determined and summarized in Table 7.

Sequence of Recombinant p62 protein (Q13501 whole entry, species assumed): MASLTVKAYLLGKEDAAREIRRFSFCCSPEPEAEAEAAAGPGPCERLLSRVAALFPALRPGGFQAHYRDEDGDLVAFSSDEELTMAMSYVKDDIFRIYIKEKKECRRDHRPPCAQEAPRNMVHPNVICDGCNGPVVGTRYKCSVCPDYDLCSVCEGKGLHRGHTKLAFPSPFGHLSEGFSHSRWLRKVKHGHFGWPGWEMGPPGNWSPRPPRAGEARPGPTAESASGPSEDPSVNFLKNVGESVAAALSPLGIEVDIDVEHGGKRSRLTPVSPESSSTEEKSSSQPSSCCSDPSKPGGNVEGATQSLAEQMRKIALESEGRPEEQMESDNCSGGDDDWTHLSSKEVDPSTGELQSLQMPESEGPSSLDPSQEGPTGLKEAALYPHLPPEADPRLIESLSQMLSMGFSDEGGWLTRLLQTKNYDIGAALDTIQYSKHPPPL

Row | receptor occupancy at 100 µM [%] | SMILES
31 | < 30 | OCCNCc1ccc2ccn(Cc3ccccc3)c2c1 [Compound 2]
32 | < 30 | O=C(NCCO)c1cccc2c1ccn2Cc1ccccc1 [Compound 4, 1-benzyl-N-(2-hydroxyethyl)-1H-indole-4-carboxamide]
33 | < 30 | O=C(CCO)Nc1cccc2c1ccn2Cc1ccccc1 [Compound 8]
34 | 30 to 70 | OCCNCc1cccc2c1ccn2Cc1ccccc1Cl [Compound 12]
35 | < 30 | OCCNCc1cccc2c1ccn2Cc1ccncc1 [Compound 14]
36 | 30 to 70 | COc1ccc(Cn2ccc3c(CNCCO)cccc32)cc1 [Compound 15]
37 | > 70 | O=C(c1ccccc1)n1ccc2c(CNCCO)cccc21 [Compound 16, (4-(((2-hydroxyethyl)amino)methyl)-1H-indol-1-yl)(phenyl)methanone]
38 | 30 to 70 | O=S(=O)(c1ccccc1)n1ccc2c(CNCCO)cccc21 [Compound 17, 2-(((1-(phenylsulfonyl)-1H-indol-4-yl)methyl)amino)ethan-1-ol]
